Here are results for eight molecules from patent US20120237441A9, “ENHANCED B CELL CYTOTOXICITY OF CDIM BINDING ANTIBODY” (priority 2003, published 2012).

In one test the test system is Nalm-6 cells. The test can be described thus: Cell viability assay using PI staining and forward scatter. The conditions noted are these: for viability: cytochalasin 5 μgs/ml or jasplakinolide 3 μgs/ml for 2 hr, then control antibodies; for effect of caspase inhibitor on cell viability: 10 μM for 2 hr at 37° C. before treatment with mAb 216. In kind it is cell-based, human. The protocol:
The integrity of the plasma membrane was assessed by the ability of cells to exclude propidium iodide (PI, Sigma, St. Louis, Mo.). The level of PI incorporation was quantitated by flow cytometry on FACScan (Becton-Dickinson, San Jose Calif.) interfaced with VersatermPro and FlowJo software at Stanford's FACS facility. PI-negative cells with normal size as measured by forward scatter signals were considered live cells.
Briefly, cells were treated as specified in each experiment and resuspended in PBS with 3% FCS and 10 μgs/ml of PI. In experiments where toxicity was evaluated in Ca-free medium, cells were resuspended in appropriate media with or without calcium to which 10 μgs/ml PI was added. Since previous studies have shown that mAb 216-mediated toxicity is remarkably pronounced at lower temperatures (Bhat, N. M., et al. (1996) Clin. Exp. Immunol. 105:183), precautions were taken to keep all media and cells at 37° C. and the centrifuge at room temperature.
Cytochalasin was obtained from Sigma and jasplakinolide was obtained from Molecular Probes (Eugene, Oreg.). Caspase inhibitors, Ac-IETD-CHO and Ac-DEVD-CHO were obtained from PharMingen (San Diego, Calif.). Nalm-6 cells (1×10^6 cells/ml) were treated with jasplakinolide (3 μgs/ml), cytochalasin (5 μgs/ml), or caspase inhibitors (10 μM) for 2 hr at 37° C. before treatment with mAb 216. Control samples with equivalent amounts of DMSO were set in parallel. Cells were then exposed to 25 μg of mAb 216 or control Ab and analyzed by flow cytometry.
Since exocytosis of lysosomes is known to be a calcium dependent phenomenon (Miyake, K., and P. L. McNeil (1995) J. Cell Biol. 131:1737; Bi, G. Q., et al. (1995) J. Cell Biol. 131:1747), membrane wounding by mAb 216 nd repair of the wound was tested in calcium free and normal calcium conditions. The cell viability of Nalm-6 cells when treated with two VH4-34 encoded mAbs, mAb 216 at 50, 25 and 12.5 ng/ml concentrations, and Y2K at 50 ng/ml, was tested in the presence of media with and without calcium.
Brefeldin-A was obtained from Sigma. Nalm-6 cells (1×10^6 cells/ml) were treated with BFA (25 μg/ml) for 2 hr at 37° C. before treatment with mAb 216. Control samples with equivalent amounts of DMSO were set in parallel. Cells were then exposed to 25 μg of mAb 216 or control Ab and analyzed by flow cytometry.

The subject of the next test is Nalm 6. The experiment in a line: In vitro cytotoxicity of mAb216 in combination with chemotherapeutic agents. In kind it is cell-based, human. The note with it: for Live cells ×10^5 / % change in live cells: 48 h; for % change in live cells: versus control. The protocol:
(§1) Three cell lines which have been derived from ALL blasts of different genotype and phenotype, Nalm 6, REH, and SUPB15, were incubated with mAb 216 alone or in combination with vincristine (VCR), for 48 hours at 37° C.
(§2) In vitro cytotoxicity of mAb216 in combination with single chemotherapeutic agents was tested. Three cell lines which have been derived from ALL blasts of different genotype and phenotype, Nalm 6, REH, and SUPB 15, were incubated with mAb 216 alone or in combination with vincristine (VCR), daunorubicin (DNR), or L-asparaginase (ASPR).

The next test concerns Reh. The description is as above. It is filed as cell-based, human. The conditions noted are these: 48 h; for % change in live cells: versus control. The protocol: as §1, §2
Another test relates to SUP B15. The description is as above. In kind it is cell-based. The conditions noted are these: 48 h; for % change in live cells: versus control. On the procedure:
as §1, §2

Where “and” joins values, the source holds several entries; their conditions need not be identical. Equal entries are not always repeated.

`C[C@H]1CCC/C=C/[C@@H]2C[C@H](O)C[C@H]2[C@H](O)/C=C/C(=O)O1` [BFA, Brefeldin A]: the “viability of cells treated with control antibodies” value in the test on Nalm-6 cells (BFA 25 μg/ml for 2 hr) is listed as “no effect”.
As to `COc1cccc2c1C(=O)c1c(O)c3c(c(O)c1C2=O)C[C@@](O)(C(C)=O)C[C@@H]3O[C@H]1C[C@H](N)[C@H](O)[C@H](C)O1` [DNR, daunorubicin], the “Live cells ×10^5” value in the test with Nalm 6 (DNR 5 ng/ml) is 4.3 ×10^5 and 4.5 ×10^5; in the test on Reh (DNR 5 ng/ml), 4.5 ×10^5; in the test with SUP B15 (DNR 4 ng/ml) it was 0.44 ×10^5. Besides, the “% change in live cells” value in the test on Nalm 6 (DNR 5 ng/ml) was 47% and 59%; in the test with Reh (DNR 5 ng/ml), 65%; with SUP B15 (DNR 4 ng/ml) it was 91%.
In the case of `CC[C@]1(O)C[C@H]2CN(CCc3c([nH]c4ccccc34)[C@@](C(=O)OC)(c3cc4c(cc3OC)N(C=O)[C@H]3[C@@](O)(C(=O)OC)[C@H](OC(C)=O)[C@]5(CC)C=CCN6CC[C@]43[C@@H]65)C2)C1` [VCR, vincristine], the “Live cells ×10^5” value was 13 ×10^5 in the test on Nalm 6 (VCR 0.2 ng/ml); 5 ×10^5 in the test on Nalm 6 (VCR 2 ng/ml); 4.2 ×10^5 and 7.7 ×10^5 in the test on Reh (VCR 2 ng/ml); 2.8 ×10^5 in the test on SUP B15 (VCR 2 ng/ml). Also, the figures for the “% change in live cells” value with Nalm 6 (VCR 0.2 ng/ml), in the test with Nalm 6 (VCR 2 ng/ml) and with SUP B15 (VCR 2 ng/ml) were 0%, 54% and 45%, respectively. For the same molecule, the “cell death due to vincristine alone” value in the test with Nalm 6 (vincristine 0.2 ng/ml, 48 hours at 37° C.) is reported as “no cell death occurred”.
Consider `C/C1=C\[C@H](C)C[C@H](C)OC(=O)C[C@H](c2ccc(O)cc2)NC(=O)[C@@H](Cc2c(Br)[nH]c3ccccc23)N(C)C(=O)[C@H](C)NC(=O)[C@@H](C)C1` [jasplakinolide], for which the viability entry in the test on Nalm-6 cells is “did not show a decrease in viability”.
Turning to Ac-DEVD-CHO, the “effect of caspase inhibitor on cell viability” value with Nalm-6 cells is recorded as “did not alter cell viability”.
Regarding Ac-IETD-aldehyde, the “effect of caspase inhibitor on cell viability” value with Nalm-6 cells is recorded as “did not alter cell viability”.
Take cytochalasin: the viability result in the test on Nalm-6 cells is “did not show a decrease in viability”.

B1: L-asparaginase (protein, UniProt P00805 23-348, looked up)
L-asparaginase 2: LPNITILATGGTIAGGGDSATKSNYTVGKVGVENLVNAVPQLKDIANVKGEQVVNIGSQDMNDNVWLTLAKKINTDCDKTDGFVITHGTDTMEETAYFLDLTVKCDKPVVMVGAMRPSTSMSADGPFNLYNAVVTAADKASANRGVLVVMNDTVLDGRDVTKTNTTDVATFKSVNYGPLGYIHNGKIDYQRTPARKHTSDTPFDVSKLNELPKVGIVYNYANASDLPAKALVDAGYDGIVSAGVGNGNLYKSVFDTLATAAKTGTAVVRSSRVPTGATTQDAEVDDAKYGFVASGTLNPQKARVLLQLALTQTKDPQQIQQIFNQY
Regarding B1, the “Live cells ×10^5” value was 9.2 ×10^5 in the test with Nalm 6 (ASPR 0.8 U/ml), 6.2 ×10^5 in the test with Reh (ASPR 0.8 U/ml) and 3 ×10^5 in the test with SUP B15 (ASPR 0.8 U/ml). Further, the results for the “% change in live cells” value with Nalm 6 (ASPR 0.8 U/ml), with Reh (ASPR 0.8 U/ml) and in the test on SUP B15 (ASPR 0.8 U/ml) were 23%, 35% and 47%, respectively.
